The values below come from US9359308B2, “Pyrazine kinase inhibitors” (Portola Pharmaceuticals, Inc., priority 2011, dated 2016).

pIC50: −log10 of the molar value.

The target of this assay is T1, full length active recombinant SYK enzyme (Homo sapiens, UniProt P43405).
T1 construct: full length active recombinant SYK enzyme (Millipore, Calif.); purchased Millipore
As to the kind of experiment: Inhibition of Syk tyrosine phosphorylation activity (LANCE TR-FRET kinase assay). Type of assay: biochemical. The settings on record: activity in the Syk assays, class symbols. The source says:
The in vitro and in vivo human Syk activities of the inventive compounds can be determined by various procedures known in the art, such as a test for their ability to inhibit the activity of human plasma Syk. […] The IC50 value is the concentration (in nM) of the compound required to provide 50% inhibition of human Syk proteolytic activity.
An in vitro assay for detecting and measuring inhibition activity against Syk is as follows:
Inhibition of Syk Tyrosine Phosphorylation Activity
Potency of candidate molecules for inhibiting Syk tyrosine phosphorylation activity is assessed by measuring the ability of a test compound to inhibit Syk-mediated tyrosine phosphorylation of a Syk-specific substrate.
SYK tyrosine phosphorylation activity is measured using the LANCE™ Technology developed by Perkin Elmer Life and Analytical Sciences (Boston, Mass.). LANCE™ refers to homogeneous time resolved fluorometry applications using techniques such as time-resolved fluorescence resonance energy transfer assay (TR-FRET) (see generally for procedures in Perkin Elmer Application Note-How to Optimize a Tyrosine Kinase Assay Using Time Resolved Fluorescence-Based LANCE Detection, wwww.perkinelmer.com/lifesciences). The assay principle involves detection of a phosphorylated substrate using energy transfer from a phosphospecific europium-labeled antibody to streptavidin-allophycocyanin as an acceptor.
To test the ability of candidate molecules to inhibit SYK tyrosine phosphorylation activity, molecules are reconstituted in 30% DMSO and serially diluted 1:3 with the final dilution containing DMSO in the absence of the candidate molecule. The final DMSO concentration in the assay is 3%. Kinase assays are performed as a two part reaction. The first reaction is a kinase reaction and which comprises of a candidate molecule, full length active recombinant SYK enzyme (Millipore, Calif.) and biotin-labeled SYK-specific substrate biotin-DEEDYESP-OH. The second reaction involves termination of the kinase reaction and the simultaneous addition of the detection reagents-europium-labeled anti-phosphotyrosine reagent (Eu-W1024-PY100, Perkin Elmer, Boston, Mass.) and Streptavidin-Allophycocyanin detection reagent (SA-APC, Prozyme, CA). The kinase reaction is performed in a black U-bottom 96-well microtitre plate. The final reaction volume is 50 μL and contains a final concentration of 1 nM active SYK enzyme, 550 nM SYK-substrate, and 100 μM ATP diluted in a buffer containing 50 mM Tris pH 7.5, 5 mM MgCl2, and 1 mM DTT. The reaction is allowed to proceed for 1 hour at room temperature. The quench buffer contains 100 mM Tris pH 7.5, 300 mM NaCl2, 20 mM EDTA, 0.02% Brij35, and 0.5% BSA. The detection reagents are added to the reaction mixture at the following dilutions-1:500 for Eu-W1024-PY100 and 1:250 for SA-APC. The kinase reaction is terminated by the addition of 50 μL quench buffer containing the detection reagents. The detection is allowed to proceed for 1 hr at room temperature. Detection of the phosphorlated substrate in the absence and presence of inhibitors is measured in the TR-FRET instrument, Analyst HT (Molecular Probes, Sunnyvale, Calif.) and the condition for measurements are set up using CriterionHost Release 2.0 (Molecular Probes, Sunnyvale, Calif.). The settings used are a follows: excitation 360 nm, emission 665-7.5 nm, beam splitter 350 nm 50/50, flash 100 pulses, delay 60 us, integration 400 us, z-height 2 mm. Inhibition of SYK-tyrosine kinase activity is calculated as the maximum response observed in the presence of inhibitor, compared to that in the absence of inhibitor. IC50s were derived by non-linear regression analysis.
For orientation: Time-resolved FRET reads energy transfer from a long-lived donor to a nearby acceptor.

One may read the pIC50 as the IC50 on a negative log10 scale, so that one unit is a factor of ten. Take `NC(=O)c1ncc(N[C@@H]2CCCC[C@@H]2N)nc1Nc1ccc(N2CCOCC2)c(F)c1` [Example 439, 5-(((1R,2S)-2-aminocyclohexyl)amino)-3-((3-fluoro-4-morpholinophenyl)amino)pyrazine-2-carboxamide]: the pIC50 is 8.00 to 9.00.

For `CC(C)[C@@H](Nc1cnc(C(N)=O)c(Nc2ccc(-c3ccccn3)cc2)n1)C(N)=O` [Example 209, (R)-5-(1-amino-3-methyl-1-oxobutan-2-ylamino)-3-(4-(pyridin-2-yl)phenylamino)pyrazine-2-carboxamide], the pIC50 is 7.00 to 8.00.

On to `Cn1ccc2cc(Nc3nc(N[C@@H]4CCCC(F)(F)[C@@H]4N)cnc3C(N)=O)ccc21` [Example 391, 5-((1R,2R)-2-amino-3,3-difluorocyclohexylamino)-3-(1-methyl-1H-indol-5-ylamino)pyrazine-2-carboxamide], for which the pIC50 is 8.00 to 9.00. Next, `Cc1cc(Nc2nc(N[C@@H]3CCCC[C@@H]3N)cnc2C(N)=O)ccc1N1CCOCC1` [Example 143, 5-((1R,2S)-2-aminocyclohexylamino)-3-(3-methyl-4-morpholinophenylamino)pyrazine-2-carboxamide]: 8.00 to 9.00.

Turning to `Cc1ccc(Nc2nc(N[C@@H]3CCNC3)cnc2C(N)=O)cc1` [Example 112, (R)-5-(pyrrolidin-3-ylamino)-3-(p-tolylamino)pyrazine-2-carboxamide], the negative-log IC50 (pIC50) is 7.00 to 8.00.

Consider `Cc1cc(Nc2nc(N[C@H](CCS(C)(=O)=O)C(N)=O)cnc2C(N)=O)sn1` [Example 400, (R)-5-(1-amino-4-(methylsulfonyl)-1-oxobutan-2-ylamino)-3-(3-methylisothiazol-5-ylamino)pyrazine-2-carboxamide], for which the pIC50 was 7.00 to 8.00. In the case of `C[C@@H](Nc1cnc(C(N)=O)c(Nc2cnc3ccccc3c2)n1)C(N)=O` [Example 5, (R)-5-(1-amino-1-oxopropan-2-ylamino)-3-(quinolin-3-ylamino)pyrazine-2-carboxamide] it was 8.00 to 9.00; in that of `CC(C)[C@@H](Nc1cnc(C(N)=O)c(Nc2cc(F)c3ncccc3c2)n1)C(N)=O` [Example 206, (R)-5-(1-amino-3-methyl-1-oxobutan-2-ylamino)-3-(8-fluoroquinolin-6-ylamino)pyrazine-2-carboxamide], 8.00 to 9.00. Turning to `CC[C@@H](Nc1cnc(C(N)=O)c(Nc2ccc(OCC(F)(F)F)nc2)n1)C(N)=O` [Example 316, (R)-5-(1-amino-1-oxobutan-2-ylamino)-3-(6-(2,2,2-trifluoroethoxy)pyridin-3-ylamino)pyrazine-2-carboxamide], the negative logarithm of the IC50 (pIC50) is 7.00 to 8.00.

For the molecule `CC(C)[C@@H](Nc1cnc(C(N)=O)c(Nc2ccc(S(=O)(=O)N(C)C)cc2)n1)C(N)=O` [Example 156, (R)-5-(1-amino-3-methyl-1-oxobutan-2-ylamino)-3-(4-(N,N-dimethylsulfamoyl)phenylamino)pyrazine-2-carboxamide], the pIC50 was 7.00 to 8.00. Next, `CC[C@@H](Nc1cnc(C(N)=O)c(Nc2cnn3ccccc23)n1)C(N)=O` [Example 421, (R)-5-((1-amino-1-oxobutan-2-yl)amino)-3-(pyrazolo[1,5-a]pyridin-3-ylamino)pyrazine-2-carboxamide]: 8.00 to 9.00.

With `NC(=O)c1ncc(N[C@H]2CCCNC2)nc1Nc1ccc2ncccc2c1` [Example 58, (S)-5-(piperidin-3-ylamino)-3-(quinolin-6-ylamino)pyrazine-2-carboxamide], the negative-log IC50 (pIC50) was 7.00 to 8.00. On to `CN(C)C(=O)c1cc(Nc2nc(N[C@@H]3CCCC[C@@H]3N)cnc2C(N)=O)sn1` [Example 248, 5-(6-((1R,2S)-2-aminocyclohexylamino)-3-carbamoylpyrazin-2-ylamino)-N,N-dimethylisothiazole-3-carboxamide], for which the negative logarithm of the IC50 (pIC50) is 8.00 to 9.00.

As for `CC(C)C[C@@H](Nc1cnc(C(N)=O)c(Nc2cccc3c2ccn3C)n1)C(N)=O` [Example 3, (R)-5-(1-amino-4-methyl-1-oxopentan-2-ylamino)-3-(1-methyl-1H-indol-4-ylamino)pyrazine-2-carboxamide], the pIC50 was 8.00 to 9.00. In the case of `COC[C@@H](Nc1cnc(C(N)=O)c(Nc2cc(C)ns2)n1)C(N)=O` [Example 402, (R)-5-(1-amino-3-methoxy-1-oxopropan-2-ylamino)-3-(3-methylisothiazol-5-ylamino)pyrazine-2-carboxamide] it was 7.00 to 8.00; in that of `CC(C)C[C@@H](Nc1cnc(C(N)=O)c(Nc2ccc(C(=O)N3CCC3)cc2)n1)C(N)=O` [Example 293, (R)-5-(1-amino-4-methyl-1-oxopentan-2-ylamino)-3-(4-(azetidine-1-carbonyl)phenylamino)pyrazine-2-carboxamide], 8.00 to 9.00; in that of `NC(=O)c1ncc(NC2(C(N)=O)CC2)nc1Nc1cnc2ccccc2c1` [Example 362, 5-(1-carbamoylcyclopropylamino)-3-(quinolin-3-ylamino)pyrazine-2-carboxamide], 7.00 to 8.00. As to `CC(C)(C)[C@@H](Nc1cnc(C(N)=O)c(Nc2cnc3cccnc3c2)n1)C(N)=O` [Example 237, (R)-3-(1,5-naphthyridin-3-ylamino)-5-(1-amino-3,3-dimethyl-1-oxobutan-2-ylamino)pyrazine-2-carboxamide], the pIC50 was 7.00 to 8.00.

As to `CCc1c(C)nsc1Nc1nc(N[C@@H]2CCCC[C@@H]2N)cnc1C(N)=O` [Example 130, 5-(((1R,2S)-2-aminocyclohexyl)amino)-3-((4-ethyl-3-methylisothiazol-5-yl)amino)pyrazine-2-carboxamide], the negative logarithm of the IC50 (pIC50) is 8.00 to 9.00. For the molecule `CC(C)C[C@@H](Nc1cnc(C(N)=O)c(Nc2ccc(N(C)C)nc2)n1)C(N)=O` [Example 313, (R)-5-(1-amino-4-methyl-1-oxopentan-2-ylamino)-3-(6-(dimethylamino)pyridin-3-ylamino)pyrazine-2-carboxamide], the negative logarithm of the IC50 (pIC50) is 7.00 to 8.00. Next, `CC(C)C[C@@H](Nc1cnc(C(N)=O)c(Nc2ccc(-c3ccno3)cc2)n1)C(N)=O` [Example 21, (R)-5-(1-amino-4-methyl-1-oxopentan-2-ylamino)-3-(4-(isoxazol-5-yl)phenylamino)pyrazine-2-carboxamide]: 8.00 to 9.00; `Cc1cc(C)cc(Nc2nc(N[C@@H](C(N)=O)C(C)C)cnc2C(N)=O)c1` [Example 163, (R)-5-(1-amino-3-methyl-1-oxobutan-2-ylamino)-3-(3,5-dimethylphenylamino)pyrazine-2-carboxamide]: 7.00 to 8.00; `Cc1cccc(Nc2nc(N[C@@H]3CCCC[C@@H]3N)cnc2C(N)=O)c1` [Example 61, 5-((1R,2S)-2-aminocyclohexylamino)-3-(m-tolylamino)pyrazine-2-carboxamide]: 6.00 to 7.00. For `CC[C@@H](Nc1cnc(C(N)=O)c(Nc2ccnc(C3CC3)c2)n1)C(N)=O` [Example 342, (R)-5-(1-amino-1-oxobutan-2-ylamino)-3-(2-cyclopropylpyridin-4-ylamino)pyrazine-2-carboxamide], the pIC50 is greater than 9.00. Next, `COC[C@@H](Nc1cnc(C(N)=O)c(Nc2cnc3cccnc3c2)n1)C(N)=O` [Example 410, (R)-3-(1,5-naphthyridin-3-ylamino)-5-(1-amino-3-methoxy-1-oxopropan-2-ylamino)pyrazine-2-carboxamide]: 7.00 to 8.00; `Cc1cncc(Nc2nc(N[C@H](CC(C)C)C(N)=O)cnc2C(N)=O)c1` [Example 83, (R)-5-(1-amino-4-methyl-1-oxopentan-2-ylamino)-3-(5-methylpyridin-3-ylamino)pyrazine-2-carboxamide]: 8.00 to 9.00; `COc1cncc(Nc2nc(N[C@H](CC(C)(C)C)C(N)=O)cnc2C(N)=O)c1` [Example 253, (R)-5-(1-amino-4,4-dimethyl-1-oxopentan-2-ylamino)-3-(5-methoxypyridin-3-ylamino)pyrazine-2-carboxamide]: 8.00 to 9.00.
